How the values were obtained:
[1] = target: T1, cholesteryl ester transfer protein (CETP) (Homo sapiens, UniProt P11597); assay: CETP activity change from baseline after 900 mg oral Compound I, fed vs fasted (Example 2); type: in vivo, human (Caucasian male patients); conditions: mean
T1 construct: from tissue; host or cells: samples from dosed male patients (CETP is described as a plasma protein)
T1 sequence (P11597 18-493): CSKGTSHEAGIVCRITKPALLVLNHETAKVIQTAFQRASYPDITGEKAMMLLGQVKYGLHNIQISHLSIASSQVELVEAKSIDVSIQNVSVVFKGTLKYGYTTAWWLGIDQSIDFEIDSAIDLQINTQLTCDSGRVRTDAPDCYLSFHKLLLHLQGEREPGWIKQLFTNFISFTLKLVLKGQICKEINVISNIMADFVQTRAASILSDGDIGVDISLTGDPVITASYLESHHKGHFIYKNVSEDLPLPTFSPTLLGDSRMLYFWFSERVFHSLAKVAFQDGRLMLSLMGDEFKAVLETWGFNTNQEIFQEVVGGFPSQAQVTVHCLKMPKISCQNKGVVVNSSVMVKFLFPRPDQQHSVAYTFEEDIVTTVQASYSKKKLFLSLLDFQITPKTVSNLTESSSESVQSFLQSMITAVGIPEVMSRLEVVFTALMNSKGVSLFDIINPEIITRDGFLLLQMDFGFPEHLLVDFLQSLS
Method: Administration, dosing, and sampling schedules were substantially similar to those described in Example 1.
The procedure for determining CETP activity was substantially similar to the procedures described in Tollefson et al., Methods Enzymol., 129, 797-816 (1986), and Kato et al., J. Biol. Chem., 264, 4082-4087 (1989).
CETP activity and changes from baseline (pre-dose) were measured, and the resulting data is summarized in Table 2 as percentage change from baseline. The mean changes from baseline (pre-dose) in CETP activity over time are set out in the plot of FIG. 3.

[2] = Food-effect pharmacokinetic study, 600 mg oral Compound I, fed vs fasted (Example 4); type: in vivo, human (Japanese male volunteers)
Method: Administration, dosing, and sampling schedules were commensurate with those described in Example 1. […] Patients were administered two tablets of 300 mg each. The tablets were prepared as described in Example 1.

Which results are given for `CCC(CC)CC1(C(=O)Nc2ccccc2SC(=O)C(C)C)CCCCC1` [Compound I, S-[2-([[1-(2-ethylbutyl)cyclohexyl]carbonyl]amino)phenyl]2-methylpropanethioate]?
Percent change from pre-dose in CETP activity ([1]; Fasted, 1 h): 1%; Percent change from pre-dose in CETP activity ([1]; Fasted, 2 h): 2%; Percent change from pre-dose in CETP activity ([1]; Fasted, 4 h): −4%; Percent change from pre-dose in CETP activity ([1]; Fasted, 6 h): −10%; Percent change from pre-dose in CETP activity ([1]; Fasted, 8 h): −15%; Percent change from pre-dose in CETP activity ([1]; Fasted, 24 h): −10%; Percent change from pre-dose in CETP activity ([1]; Fed, 1 h): −1%; Percent change from pre-dose in CETP activity ([1]; Fed, 2 h): −16%; Percent change from pre-dose in CETP activity ([1]; Fed, 4 h): −44%; Percent change from pre-dose in CETP activity ([1]; Fed, 6 h): −59%; Percent change from pre-dose in CETP activity ([1]; Fed, 8 h): −58%; Percent change from pre-dose in CETP activity ([1]; Fed, 24 h): −34%; AUC0-∞ times higher with food as compared to without food [2]: ~2 times

Reference: US7276536B2, “Method for increasing the bioavailability of the active form of S-[2-([[1-(2-ethylbutyl)cyclohexyl]carbonyl]amino) phenyl] 2-methylpropanethioate” (Japan Tobacco Inc., priority 2003, dated 2007)
